Reference: ChEMBL document CHEMBL5233280, “Berberine improves liver injury induced glucose and lipid metabolic disorders via alleviating ER stress of hepatocytes and modulating gut microbiota in mice” (Bioorg Med Chem, 2021)
Active and inactive are the calls of the source. The rule behind the calls is not given here.

Columns and labels:
Assay type in all cases: functional, organism-based
Mus musculus [1] = assay: Protection against tunicamycin-induced ER stress in C57BL/6 mouse assessed as downregulation of CHOP protein expression in liver at 150 mg/kg, ig administered for 3 days and on day 3 administered with tunicamycin after 2 hrs and measured after 24 hrs by western blot analysis; conditions: time 4.0 day
Mus musculus [2] = assay: (§1) Protection against tunicamycin-induced liver injury-mediated hepatic metabolic disorders in C57BL/6 mouse assessed as inhibition of lipid metabolic disorders by measuring increase in plasma TG level at 75 to 300 mg/kg, ig administered for 3 days and on day 3 administered with tunicamycin after 2 hrs and measured after 24 hrs; conditions: dose 75-300 mg/kg, time 4.0 day
Mus musculus [3] = assay: Protection against tunicamycin-induced gut microbiota dysbiosis in C57BL/6 mouse assessed as increase in Erysipelotrichaceae- abundance in colon at 75 to 300 mg/kg, ig administered for 3 days and on day 3 administered with tunicamycin after 2 hrs and measured after 24 hrs; conditions: dose 75-300 mg/kg, time 4.0 day
Mus musculus [4] = assay: Protection against tunicamycin-induced gut microbiota dysbiosis in C57BL/6 mouse assessed as decrease in ratio of Prevotellaceae-to-Erysipelotrichaceae in colon at 75 to 300 mg/kg, ig administered for 3 days and on day 3 administered with tunicamycin after 2 hrs and measured after 24 hrs; conditions: dose 75-300 mg/kg, time 4.0 day
Mus musculus [5] = assay: Protection against tunicamycin-induced UPR response in C57BL/6 mouse assessed as downregulation of IRE1alpha protein expression in liver at 150 mg/kg, ig administered for 3 days and on day 3 administered with tunicamycin after 2 hrs and measured after 24 hrs by western blot analysis; conditions: time 4.0 day
Mus musculus [6] = assay: (§2) Protection against tunicamycin-induced liver injury-mediated hepatic metabolic disorders in C57BL/6 mouse assessed as increase in PPARgamma2 gene expression at 75 to 300 mg/kg, ig administered for 3 days and on day 3 administered with tunicamycin after 2 hrs and measured after 24 hrs by RT-qPCR analysis; conditions: dose 75-300 mg/kg, time 4.0 day
Mus musculus [7] = assay: Protection against tunicamycin-induced ER stress in C57BL/6 mouse assessed as downregulation of CHOP gene expression in liver at 150 mg/kg, ig administered for 3 days and on day 3 administered with tunicamycin after 2 hrs and measured after 24 hrs by RT-qPCR analysis; conditions: time 4.0 day
Mus musculus [8] = assay: Protection against tunicamycin-induced ER stress-mediated liver injury in C57BL/6 mouse assessed as plasma ALT level at 75 to 300 mg/kg, ig administered for 3 days and on day 3 administered with tunicamycin after 2 hrs and measured after 24 hrs; conditions: dose 75-300 mg/kg, time 4.0 day
Mus musculus [9] = assay: Protection against tunicamycin-induced UPR response in C57BL/6 mouse assessed as downregulation of phosphorylated eIF2alpha protein expression in liver at 150 mg/kg, ig administered for 3 days and on day 3 administered with tunicamycin after 2 hrs and measured after 24 hrs by western blot analysis; conditions: time 4.0 day
Mus musculus [10] = assay: as §1, with “TC” for “TG”; conditions: dose 75-300 mg/kg, time 4.0 day
Mus musculus [11] = assay: as §1, with “in plasma VLDL-C level at” for “in plasma TG level at”, “24 hrs by ELISA” for “24 hrs”; conditions: dose 75-300 mg/kg, time 4.0 day
Mus musculus [12] = assay: Protection against tunicamycin-induced gut microbiota dysbiosis in C57BL/6 mouse assessed as increase in proteobacteria abundance in colon at 75 to 300 mg/kg, ig administered for 3 days and on day 3 administered with tunicamycin after 2 hrs and measured after 24 hrs; conditions: dose 75-300 mg/kg, time 4.0 day
Mus musculus [13] = assay: (§3) Protection against tunicamycin-induced liver injury-mediated hepatic metabolic disorders in C57BL/6 mouse assessed as increase in CD36 gene expression at 150 mg/kg, ig administered for 3 days and on day 3 administered with tunicamycin after 2 hrs and measured after 24 hrs by RT-qPCR analysis; conditions: time 4.0 day
Mus musculus [14] = assay: Protection against tunicamycin-induced UPR response in C57BL/6 mouse assessed as downregulation of PERK gene expression in liver at 150 mg/kg, ig administered for 3 days and on day 3 administered with tunicamycin after 2 hrs and measured after 24 hrs by RT-qPCR analysis; conditions: time 4.0 day
Mus musculus [15] = assay: as §3, with “reduction” for “increase”, “TRB3” for “CD36”, “expression in liver” for “expression”; conditions: time 4.0 day
Mus musculus [16] = assay: Protection against tunicamycin-induced liver injury-mediated hepatic metabolic disorders in C57BL/6 mouse assessed as LDL-C level in liver at 75 to 300 mg/kg, ig administered for 3 days and on day 3 administered with tunicamycin after 2 hrs and measured after 24 hrs; conditions: dose 75-300 mg/kg, time 4.0 day
Mus musculus [17] = assay: Protection against tunicamycin-induced liver injury-mediated hepatic metabolic disorders in C57BL/6 mouse assessed as HDL-C level in liver at 75 to 300 mg/kg, ig administered for 3 days and on day 3 administered with tunicamycin after 2 hrs and measured after 24 hrs; conditions: dose 75-300 mg/kg, time 4.0 day
Mus musculus [18] = assay: Protection against tunicamycin-induced ER stress in C57BL/6 mouse assessed as downregulation of GRP78 protein expression in liver at 150 mg/kg, ig administered for 3 days and on day 3 administered with tunicamycin after 2 hrs and measured after 24 hrs by western blot analysis; conditions: time 4.0 day
Mus musculus [19] = assay: Effect on Akt protein expression in liver of tunicamycin-induced liver injury C57BL/6 mouse model at 75 to 300 mg/kg, ig administered for 3 days and on day 3 administered with tunicamycin after 2 hrs and measured after 24 hrs in presence of insulin by western blot analysis; conditions: dose 75-300 mg/kg, time 4.0 day
Mus musculus [20] = assay: as §2, with “ACCalpha1” for “PPARgamma2”; conditions: dose 75-300 mg/kg, time 4.0 day
Mus musculus [21] = assay: Protection against tunicamycin-induced UPR response in C57BL/6 mouse assessed as downregulation of PERK protein expression in liver at 150 mg/kg, ig administered for 3 days and on day 3 administered with tunicamycin after 2 hrs and measured after 24 hrs by western blot analysis; conditions: time 4.0 day
Mus musculus [22] = assay: as §1, with “LDL-C” for “TG”; conditions: dose 75-300 mg/kg, time 4.0 day
Mus musculus [23] = assay: Protection against tunicamycin-induced liver injury-mediated hepatic metabolic disorders in C57BL/6 mouse assessed as increase in FXR gene expression at 75 to 300 mg/kg, ig administered for 3 days and on day 3 administered with tunicamycin after 2 hrs and measured after 24 hrs by RT-qPCR analysis; conditions: dose 75-300 mg/kg, time 4.0 day
Mus musculus [24] = assay: Protection against tunicamycin-induced ER stress-mediated liver injury in C57BL/6 mouse assessed as plasma AST level at 75 to 300 mg/kg, ig administered for 3 days and on day 3 administered with tunicamycin after 2 hrs and measured after 24 hrs; conditions: dose 75-300 mg/kg, time 4.0 day
Mus musculus [25] = assay: Protection against tunicamycin-induced UPR response in C57BL/6 mouse assessed as downregulation of ATF6 gene expression in liver at 150 mg/kg, ig administered for 3 days and on day 3 administered with tunicamycin after 2 hrs and measured after 24 hrs by RT-qPCR analysis; conditions: time 4.0 day
Mus musculus [26] = assay: as §2, with “reduction” for “increase”, “FGF21” for “PPARgamma2”, “expression in liver” for “expression”; conditions: dose 75-300 mg/kg, time 4.0 day
Mus musculus [27] = assay: Protection against tunicamycin-induced ER stress in C57BL/6 mouse assessed as downregulation of GRP78 gene expression in liver at 150 mg/kg, ig administered for 3 days and on day 3 administered with tunicamycin after 2 hrs and measured after 24 hrs by RT-qPCR analysis; conditions: time 4.0 day
Mus musculus [28] = assay: Protection against tunicamycin-induced liver injury-mediated hepatic metabolic disorders in C57BL/6 mouse assessed as TC level in liver at 75 to 300 mg/kg, ig administered for 3 days and on day 3 administered with tunicamycin after 2 hrs and measured after 24 hrs; conditions: dose 75-300 mg/kg, time 4.0 day
Mus musculus [29] = assay: Protection against tunicamycin-induced liver injury-mediated hepatic metabolic disorders in C57BL/6 mouse assessed as reduction in FGF21 level in serum at 75 to 300 mg/kg, ig administered for 3 days and on day 3 administered with tunicamycin after 2 hrs and measured after 24 hrs by ELISA; conditions: dose 75-300 mg/kg, time 4.0 day
Mus musculus [30] = assay: Protection against tunicamycin-induced liver injury-mediated hepatic metabolic disorders in C57BL/6 mouse assessed as increase in SCD1 gene expression at 75 to 300 mg/kg, ig administered for 3 days and on day 3 administered with tunicamycin after 2 hrs and measured after 24 hrs by RT-qPCR analysis; conditions: dose 75-300 mg/kg, time 4.0 day
Mus musculus [31] = assay: as §2, with “PPARgamma1” for “PPARgamma2”; conditions: dose 75-300 mg/kg, time 4.0 day
Mus musculus [32] = assay: (§4) Protection against tunicamycin-induced ER stress-mediated liver injury in C57BL/6 mouse assessed as normal liver morphology at 75 to 300 mg/kg, ig administered for 3 days and on day 3 administered with tunicamycin after 2 hrs and measured after 24 hrs; conditions: dose 75-300 mg/kg, time 4.0 day
Mus musculus [33] = assay: as §4, with “normal liver histology at 75” for “normal liver morphology at 75”, “24 hrs by Hematoxylin-eosin staining based microscopic analysis” for “24 hrs”; conditions: dose 75-300 mg/kg, time 4.0 day
Mus musculus [34] = assay: Protection against tunicamycin-induced liver injury-mediated hepatic metabolic disorders in C57BL/6 mouse assessed as increase in phosphorylated Akt level in liver at 150 mg/kg, ig administered for 3 days and on day 3 administered with tunicamycin after 2 hrs and measured after 24 hrs in presence of insulin by western blot analysis; conditions: time 4.0 day
Mus musculus [35] = assay: Protection against tunicamycin-induced gut microbiota dysbiosis in C57BL/6 mouse assessed as increase in Pediococcus-pentosaceus abundance in colon at 150 mg/kg, ig administered for 3 days and on day 3 administered with tunicamycin after 2 hrs and measured after 24 hrs by LEfse analysis; conditions: time 4.0 day
Mus musculus [36] = assay: as §1, with “decrease” for “increase”, “liver” for “plasma”; conditions: dose 75-300 mg/kg, time 4.0 day
Mus musculus [37] = assay: Reduction in plasma albumin level in tunicamycin-induced liver injury C57BL/6 mouse model at 75 to 300 mg/kg, ig administered for 3 days and on day 3 administered with tunicamycin after 2 hrs and measured after 24 hrs; conditions: dose 75-300 mg/kg, time 4.0 day
Mus musculus [38] = assay: Protection against tunicamycin-induced liver injury-mediated hepatic metabolic disorders in C57BL/6 mouse assessed as increase in CYP7A1 gene expression at 75 to 300 mg/kg, ig administered for 3 days and on day 3 administered with tunicamycin after 2 hrs and measured after 24 hrs by RT-qPCR analysis; conditions: dose 75-300 mg/kg, time 4.0 day
Mus musculus [39] = assay: Protection against tunicamycin-induced gut microbiota dysbiosis in C57BL/6 mouse assessed as decrease in prevotellaceae-abundance in colon at 75 to 300 mg/kg, ig administered for 3 days and on day 3 administered with tunicamycin after 2 hrs and measured after 24 hrs; conditions: dose 75-300 mg/kg, time 4.0 day
Mus musculus [40] = assay: as §1, with “HDL-C” for “TG”; conditions: dose 75-300 mg/kg, time 4.0 day
Mus musculus [41] = assay: Protection against tunicamycin-induced gut microbiota dysbiosis in C57BL/6 mouse assessed as increase in Epsilonbacteraeota-abundance in colon at 75 to 300 mg/kg, ig administered for 3 days and on day 3 administered with tunicamycin after 2 hrs and measured after 24 hrs; conditions: dose 75-300 mg/kg, time 4.0 day

Compound: COc1ccc2cc3[n+](cc2c1OC)CCc1cc2c(cc1-3)OCO2
- Activity (Mus musculus [1]): Active
- Activity (Mus musculus [2]): Active
- Activity (Mus musculus [3]): Active
- Activity (Mus musculus [4]): Active
- Activity (Mus musculus [5]): Active
- Activity (Mus musculus [6]): inactive
- Activity (Mus musculus [7]): Active
- Activity (Mus musculus [8]): inactive
- Activity (Mus musculus [9]): Active
- Activity (Mus musculus [10]): Active
- Activity (Mus musculus [11]): Active
- Activity (Mus musculus [12]): Active
- Activity (Mus musculus [13]): Active
- Activity (Mus musculus [14]): Active
- Activity (Mus musculus [15]): Active
- Activity (Mus musculus [16]): inactive
- Activity (Mus musculus [17]): inactive
- Activity (Mus musculus [18]): Active
- Activity (Mus musculus [19]): inactive
- Activity (Mus musculus [20]): inactive
- Activity (Mus musculus [21]): Active
- Activity (Mus musculus [22]): Active
- Activity (Mus musculus [23]): inactive
- Activity (Mus musculus [24]): inactive
- Activity (Mus musculus [25]): Active
- Activity (Mus musculus [26]): Active
- Activity (Mus musculus [27]): Active
- Activity (Mus musculus [28]): inactive
- Activity (Mus musculus [29]): Active
- Activity (Mus musculus [30]): inactive
- Activity (Mus musculus [31]): inactive
- Activity (Mus musculus [32]): Active
- Activity (Mus musculus [33]): Active
- Activity (Mus musculus [34]): Active
- Activity (Mus musculus [35]): Active
- Activity (Mus musculus [36]): Active
- inhibition (Mus musculus [37]): Active
- Activity (Mus musculus [38]): inactive
- Activity (Mus musculus [39]): Active
- Activity (Mus musculus [40]): Active
- Activity (Mus musculus [41]): Active
